{"source": "ChEMBL document CHEMBL4627357", "about": "“An osteoinductive effect of phytol on mouse mesenchymal stem cells (C3H10T1/2) towards osteoblasts” (Bioorg Med Chem Lett, 2020)", "key": {"[1]": {"tested_on": "C3H 10T1/2", "test": "Induction of osteoblast differentiation in mouse C3H10T1/2 cells assessed as increase in Runx2 mRNA expression at 40 uM measured after 3 to 7 days by RT-qPCR analysis", "format": "functional, cell-based"}, "[2]": {"tested_on": "C3H 10T1/2", "test": "Induction of osteoblast differentiation in mouse C3H10T1/2 cells assessed as increase in osteocalcin mRNA expression at 40 uM measured after 3 to 7 days by RT-qPCR analysis", "format": "functional, cell-based"}, "[3]": {"tested_on": "C3H 10T1/2", "test": "Upregulation of Runx2 mRNA expression in mouse C3H10T1/2 at 40 uM measured after 72 hrs by SYBR green based RT-qPCR analysis", "format": "functional, cell-based"}, "[4]": {"tested_on": "C3H 10T1/2", "test": "Induction of osteoblast differentiation in mouse C3H10T1/2 cells assessed as increase in type-1 collagen mRNA expression at 40 uM measured after 3 days by RT-qPCR analysis", "format": "functional, cell-based"}, "[5]": {"tested_on": "C3H 10T1/2", "test": "Induction of osteoblast differentiation in mouse C3H10T1/2 cells assessed as downregulation of Smad7 protein expression at 40 uM measured after 7 days by Western blot analysis", "format": "functional, cell-based"}, "[6]": {"tested_on": "C3H 10T1/2", "test": "Induction of osteoblast differentiation in mouse C3H10T1/2 cells assessed as increase in type-1 collagen mRNA expression at 40 uM measured after 7 days by RT-qPCR analysis", "format": "functional, cell-based"}, "[7]": {"tested_on": "C3H 10T1/2", "test": "Induction of osteoblast differentiation in mouse C3H10T1/2 cells assessed as increase in ALP mRNA expression at 40 uM measured after 3 days by RT-qPCR analysis", "format": "functional, cell-based"}, "[8]": {"tested_on": "C3H 10T1/2", "test": "Induction of osteoblast differentiation in mouse C3H10T1/2 cells assessed as increase in ALP mRNA expression at 40 uM measured after 7 days by RT-qPCR analysis", "format": "functional, cell-based"}, "[9]": {"tested_on": "C3H 10T1/2", "test": "Induction of osteoblast differentiation in mouse C3H10T1/2 cells assessed as formation of mineralized nodule at 40 uM measured after 14 days by von-Kossa staining based assay", "format": "functional, cell-based"}, "[10]": {"test": "Cytotoxicity against mouse C3H10T1/2 cells assessed as live cells at 40 uM measured after 72 hrs by MUSE cell analyzer (reference value: 95.8%)", "format": "cell-based, C3H 10T1/2", "conditions": "read-out: Activity"}, "[11]": {"tested_on": "C3H 10T1/2", "test": "Cytotoxicity against mouse C3H10T1/2 cells assessed as spindle shaped and flattened appearance at 40 uM measured after 72 hrs by FDA staining based assay", "format": "cell-based", "conditions": "c3h 10t1/2, 72 h"}, "[12]": {"tested_on": "C3H 10T1/2", "test": "Cytotoxicity against mouse C3H10T1/2 cells assessed as dead cells at 40 uM measured after 72 hrs by MUSE cell analyzer (reference value: 4.2%)", "format": "cell-based", "conditions": "c3h 10t1/2, 72 h"}, "[13]": {"tested_on": "C3H 10T1/2", "test": "Induction of osteoblast differentiation in mouse C3H10T1/2 cells assessed as upregulation of miRNA-21a mRNA expression at 40 uM measured after 7 days by RT-qPCR analysis", "format": "functional, cell-based"}, "[14]": {"tested_on": "C3H 10T1/2", "test": "Induction of osteoblast differentiation in mouse C3H10T1/2 cells assessed as increase in calcium deposition at 40 uM measured after 14 days by alizarin red staining based assay", "format": "functional, cell-based"}, "[15]": {"tested_on": "C3H 10T1/2", "test": "Induction of osteoblast differentiation in mouse C3H10T1/2 cells assessed as increase in osterix mRNA expression at 40 uM measured after 3 to 7 days by RT-qPCR analysis", "format": "functional, cell-based"}, "[16]": {"tested_on": "C3H 10T1/2", "test": "Induction of osteoblast differentiation in mouse C3H10T1/2 cells assessed as upregulation in Runx2 protein expression at 40 uM measured after 7 days by Western blot analysis", "format": "functional, cell-based"}}, "note": "Calls of active or inactive are those of the source. The rule behind the calls is not given here."}
{"smiles": "C/C(=C\\CO)CCC[C@H](C)CCC[C@H](C)CCCC(C)C", "note": "[TRANS-PHYTOL]", "values": [{"measurement": "Activity", "setting": "[1]", "value": "Active"}, {"measurement": "Activity", "setting": "[2]", "value": "inactive"}, {"measurement": "Activity", "setting": "[3]", "value": "Active"}, {"measurement": "Activity", "setting": "[4]", "value": "inactive"}, {"measurement": "Activity", "setting": "[5]", "value": "Active"}, {"measurement": "Activity", "setting": "[6]", "value": "Active"}, {"measurement": "Activity", "setting": "[7]", "value": "inactive"}, {"measurement": "Activity", "setting": "[8]", "value": "Active"}, {"measurement": "Activity", "setting": "[9]", "value": "Active"}, {"measurement": "viability at 72 h, 40 µM", "setting": "[10]", "value": 96, "unit": "%"}, {"measurement": "Activity", "setting": "[11]", "value": "Non-Toxic"}, {"measurement": "Activity", "setting": "[12]", "value": 4, "unit": "%"}, {"measurement": "Activity", "setting": "[13]", "value": "Active"}, {"measurement": "Activity", "setting": "[14]", "value": "Active"}, {"measurement": "Activity", "setting": "[15]", "value": "inactive"}, {"measurement": "Activity", "setting": "[16]", "value": "Active"}]}
